According to patent US12264164B2, “Method of treatment of symptoms of menopause” (KaNDy Therapeutics Limited, priority 2018, dated 2025):

System: post-menopausal women experiencing moderate to severe vasomotor symptoms
Experiment: Efficacy assessments in the Phase 1b/2 study
Format: in vivo, human
Conditions: hard gelatin drug product, 150 mg once daily (three 50 mg capsules), doses tested 50-300 mg for 14 days
Description: There were 13 or 15 subjects per dose group.
Repeat once-a-day dosing of 150 mg Compound A gave a geometric mean exposure AUC0-24 5164 ng.hr/mL of the drug at Day 14.

Question: Which efficacy assessments does the source give for `Cc1cc(F)ccc1-c1cc(N2C[C@H]3COCCN3C[C@H]2CO)ncc1N(C)C(=O)C(C)(C)c1cc(C(F)(F)F)cc(C(F)(F)F)c1` [Compound A, 2-[3,5-Bis(trifluoromethyl)phenyl]-N-{4-(4-fluoro-2-methylphenyl)-6-[(7S,9aS)-7-(hydroxymethyl)hexahydropyrazino[2,1-c][1,4]oxazin-8(1H)-yl]-3-pyridinyl}-N,2-dimethylpropanamide] here?
Answer: The efficacy assessments was “maximum efficacy”.
